Measured values reported in patent US7001770B1, “Calpain inhibitors and their applications” (priority 1998, dated 2006).
Peptide text beside a SMILES is read from it.

Key:
HLF cells = experiment: Apoptosis by annexin V-FITC staining, flow cytometry; format: cell-based; settings: calpain inhibitor 2 at 10 μM
Description: (§1) P53 was administered to the cells by the use of the replication defective adenoviral vector ACN53 described in Wills, et al., supra. The effect of varying concentrations of rAd-p53 (from […] to 2×10^9 rAd-p53 particles/ml of solution) was investigated in combination with CI-1 in a range of 5–20 μm. The effects of individual and combination treatment was determined in the in DLD1, RKO, HLF and SK-Hep1 cells was investigated in substantial accordance with the teaching of Examples 2 and 3 herein. The percentage of apoptotic cells was determined at 17 hours post treatment (with the exception of U87 cells (24 hours) and HeLa cells (68 hours)) with annexin V positive staining. The results are presented in graphical format in FIG. 3 of the attached drawings. In brief, the results were as follows:
To quantitate the increased efficacy of rAd-p53 induced cell killing in tumor cell lines in response to CI-1 treatment, HLF cells were infected with increasing concentrations of rAd-p53 with or without 10 μM CI-1, and assayed for percentage apoptotic cells by annexin V-FITC staining 42 hours post-treatment in substantial accordance with the teaching of Example 3 herein. […] No increase in annexin V-FITC positive cells was detected at 1×10^5 particles/ml rAd-p53 with or without 10 μM CI-1. At 1×10^6 particles/ml rAd-p53, the percentage apoptotic cells without CI-1 was 14%, while 40% of annexin V positive cells was detected when cell were treated with 10 μM CI-1. At a concentration of 1×10^7 ACN53 particles/ml, 17% annexin V positive without and 63% with 10 μM CI-1 was detected. At 1×10^8 particles/ml, 52% were annexin V positive without and 70% positive with inhibitor treatment. At a dose of 1×10^9 particles of rAd-p53, however, the percentage annexin V positive was about the same for both 77% without and 74% with 10 μM CI-1. […] concentration of rAd-p53 was sufficient to induce approximately 50% cell death, while only a 1×10^7 particle/ml concentration rAd-p53 was needed to induce approximately the same percentage of cell death when 10 μM CI-1 as added.
(§2) The effect of an inhibitor of μ-calpains, CI-1 (N-acetyl-leu-leu-norleucinal), was investigated for its ability to enhance p53 mediated apoptosis in tumor cell lines having p53+ and p53− status listed in Table1. Each cell line was treated with 5–50 μM CI-1 for 17–26 hours. To detect a G0/G1 block, bromodeoxyuridine (BrdU) incorporation followed by flow cytometric analysis was done 17 hours post-treatment as described in Example 4 herein. […] The results of these experiments are presented in FIGS. 1 and 2 of the attached drawings. In FIG. 1, each point on the graph represents percentage annexin V positive after background percentage (DMF alone) was subtracted.
(§3) An aliquot containing approximately 1×10^6 cells of each type was placed in a T-225 flask. The effect of varying concentrations of rAd-p53 (from 1×10^7 to 2×10^9ACN53 particles/ml of solution) was investigated in combination with CI-1 in a range of 5–20 μM. In each instance, the cell line was infected with 1×10^7–1×10^9 particles/ml of cell culture with the ACN53 using the empty cassette virus (ZZCB) as a control. In each instance, the cells were exposed to the virus for a period of one hour. At the end of this time, the virus was washed off the from the cells and fresh media containing an appropriate concentration of CI-1 was added.
HLF cells were infected at increasing log concentrations of rAd-p53 ranging from 1×10^5 to 1×10^9 for one hour at which time virus was washed off and replaced with fresh media (viral infection with no treatment) or with 10 μM calpain inhibitor 1. Cells were assayed for apoptosis by annexin V-FITC staining at 24 and 42 hours post-infection.
CI-1 was obtained from Boehringer-Mannheim Biochemicals (Indianapolis, Ind.). The CI-1 containing media was prepared as follows. CI-1 was diluted in dimethylformamide (DMF) to a concentration of 33.3 μM/μl. […]

SK-Hep1 cells = experiment: as above; format: cell-based; settings: calpain inhibitor 2 at 20 μM; endogenous wildtype p53
Description: as §1, §2, §3
CI-1 was obtained from Boehringer-Mannheim Biochemicals (Indianapolis, Ind.). The CI-1 containing media was prepared as follows. CI-1 was diluted in dimethylformamide (DMF) to a concentration of 33.3 μM/μl. The CI-1 solution in DMF was added to achieve a final concentration in the media of 5 or 10 μM final concentration of CI-1. An equivalent volume of DMF alone was added to the control cells. Calpain inhibitor 2, N-acetyl-leu—leu-methioninal (Boehringer Mannheim) was added to cell lines at 5–50 μM final concentration with or without rAd-p53 for 26 hours.
At a time of 17 (or 26 hours) post infection, the percentage of cells undergoing apoptosis was determined by convential apoptotic markers. Apoptosis was monitored visually by observing blebbed nuclei characteristic of apoptosis, by propidium iodide staining (using propidium iodide commercially available from Molecular Probes, Inc.) followed by flow cytometric analysis to look for subgenomic populations of cells, and by labeling cells with annexin V-FITC (commercially available from Boehringer Mannheim) in substantial accordance with the instructions provided by the manufacturer, followed by flow cytometric analysis on a FACScan Flow Cytometer (commercially available from Becton Dickinson).

## CSCC[C@@H](C=O)NC(=O)[C@H](CC(C)C)NC(=O)[C@H](CC(C)C)NC(C)=O [CI-2, N-acetyl-leu—leu-methioninal] (Ac-Leu-Leu-Met-aldehyde)
HLF cells
  effect on the induction of apoptosis in combination with rAd-p53: no significant effect
SK-Hep1 cells
  increase in annexin V-FITC positive cells: no significant increase
